“Also recorded” adds a separate entry of the source. Like-named read-outs stand apart in the source and are kept apart here.
Columns and labels:
Mite [1] = conditions: Dose 1 ml/gm/lit.; for Total No. of dead insect at 48 Hrs.: 10 insects/treatment, 4 replications, okra leaves
Aphid [2] = conditions: Aphids on cotton plants, green house; dose 1 ml/gm/lit.; 10 insects/plant, 10 plants/treatment; 48 hrs
chili seedlings = test: Response of chili plants, greenhouse growth (Ex. 31); format: in vivo; conditions: chili seedlings, dose 1 ml/gm/lit; for CCI 5th Day / Plant Height (cm) 5th Day: 5th day after application; for CCI 10th Day / Plant Height (cm) 10th Day: 10th day after application; for CCI % Increase over pre on 10th Day / Plant Height % Increase over pre on 10th Day / Root Lenght (cm) 10th Day / Stem Girth % Increase over pre on 10th Day / Root Lenght % Increase over control: 10th day; for Root Lenght % Increase over control: vs water control
Alternaria alternata [3] = test: In vitro poisoned food technique against fungus (Ex. 20); format: cell-based; conditions: poisoned food technique, PDA medium, dose 1 ml/gm/lit., after seven days; for inhibition of growth at 1 mL or g/L: vs untreated control, read-out: % Inhibition of growth
Helicoverpa armigera [4] = conditions: Helicoverpa armigera 3rd instar on chickpea plants, dose 1 ml/gm/lit. spray; for % Mortality at 72 Hrs.: 72 hrs after application; for % Corrected Mortality at 72 Hrs.: corrected for water control
Mealy Bug [5] = conditions: mealy bug on cotton plants, green house, dose 1 ml/gm/lit. spray; for % Mortality at 48 Hrs. / Total No. of dead insect at 48 Hrs.: 48 hrs after application; for % Corrected Mortality at 48 Hrs.: corrected for water control
Aphid [6] = test: whole plant or invertebrate; conditions: 48 h
Spodoptera litura [7] = conditions: Spodoptera litura 3rd instar on cabbage plants, dose 1 ml/gm/lit. spray; for % Mortality at 72 Hrs.: 72 hrs after application; for % Corrected Mortality at 72 Hrs.: corrected for water control
Helicoverpa armigera [8] = conditions: Helicoverpa armigera on okra fruits, dose 1 ml/gm/lit., 72 Hrs.; for Total No. of dead insect at 72 Hrs.: 10 insects/treatment, 4 replications; for % Corrected Mortality at 72 Hrs.: corrected for water control
Alternaria alternata [9] = test: Alternaria leaf spot/blight on inoculated tomato plants (Ex. 28); format: in vivo; conditions: tomato plants, Alternaria alternata; after 7 days; dose 1 ml/gm/lit
Spodoptera litura [10] = conditions: Spodoptera litura on castor leaves; dose 1 ml/gm/lit.; 10 insects/treatment; 72 hrs after application
Thrips [11] = test: whole plant or invertebrate; conditions: in Gossypium hirsutum, 48 h
Aphid [12] = conditions: Dose 1 ml/gm/lit.; for Total No. of dead insect at 48 Hrs.: 10 insects/treatment, 4 replications, cotton leaves
tomato seedlings = test: Response of tomato plants, greenhouse growth (Ex. 30); format: in vivo; conditions: tomato seedlings, dose 1 ml/gm/lit; for Plant Height 5th Day / Stem Girth 5th Day / CCI 5th Day: 5th day after application; for Plant Height 10th Day / Stem Girth 10th Day / CCI 10th Day: 10th day after application; for Plant Height % Increase over pre on 10th Day / Stem Girth % Increase over pre on 10th Day / CCI % Increase over pre on 10th Day / Root Length (cm) 10th Day / Root Length % Increase over control: 10th day; for Root Length % Increase over control: vs water control
[13] = Table 13, effect on plants, descriptive; cited from earlier work
Spodoptera litura [14] = test: whole plant or invertebrate; conditions: 72 h
Mite [15] = conditions: mite on okra plants, green house, dose 1 ml/gm/lit. spray; for % Mortality at 48 Hrs. / Total No. of dead insect at 48 Hrs.: 48 hrs after application; for % Corrected Mortality at 48 Hrs.: corrected for water control
Thrips [16] = conditions: thrips on cotton plants, greenhouse, dose 1 ml/gm/lit. spray; for % Corrected Mortality at 48 Hrs.: corrected for water control
Thrips [17] = conditions: Thrips on cotton leaves; dose 1 ml/gm/lit.; 10 insects/treatment; 48 hrs after application
Mealy Bug [18] = conditions: Mealy Bug on cotton leaves, dose 1 ml/gm/lit., 48 Hrs.; for Total No. of dead insect at 48 Hrs.: 10 insects/treatment, 4 replications; for % Corrected Mortality at 48 Hrs.: corrected for water control
[19] = read-out: % Corrected Mortality at 48 Hrs.
[20] = read-out: % Mortality at 48 Hrs.
[21] = read-out: % Corrected Mortality at 72 Hrs.
[22] = read-out: % Mortality at 72 Hrs.

CC12CCC(CC1)C(C)(C)O2 [1,8 cineole]
Total No. of dead insect at 48 Hrs. (Mite [1]): 2.50 | % Corrected Mortality at 48 Hrs. (Mite [1]): 18.92% | % Mortality at 48 Hrs. (Mite [1]): 25.00% | Total No. of dead insect at 48 Hrs. (Aphid [2]): 62.50 | CCI 5th Day (chili seedlings): 9.69 | Plant Height (cm) 5th Day (chili seedlings): 6.99 cm | CCI % Increase over pre on 10th Day (chili seedlings): 42.63% | Plant Height % Increase over pre on 10th Day (chili seedlings): 49.60% | Root Lenght (cm) 10th Day (chili seedlings): 3.26 cm | Stem Girth % Increase over pre on 10th Day (chili seedlings): 44.88% | CCI 10th Day (chili seedlings): 12.58 | Plant Height (cm) 10th Day (chili seedlings): 7.54 cm | Root Lenght % Increase over control (chili seedlings): 19.07% | Mean colony Diameter (mm) (Alternaria alternata [3]): 72.00 mm | inhibition of growth at 1 mL or g/L (Alternaria alternata [3]): 18.2% | % Mortality at 72 Hrs. (Helicoverpa armigera [4]): 52.50% | % Corrected Mortality at 72 Hrs. (Helicoverpa armigera [4]): 52.50% | % Mortality at 48 Hrs. (Mealy Bug [5]): 45.00% | Total No. of dead insect at 48 Hrs. (Mealy Bug [5]): 45.00 | % Corrected Mortality at 48 Hrs. (Mealy Bug [5]): 38.89% | mortality at 1 mL or g/L (Aphid [6]; [19]): 55.9% | mortality at 1 mL or g/L (Aphid [6]; [20]): 62.5% | % Mortality at 72 Hrs. (Spodoptera litura [7]): 70.00% | % Corrected Mortality at 72 Hrs. (Spodoptera litura [7]): 68.42% | Total No. of dead insect at 72 Hrs. (Helicoverpa armigera [8]): 5.50 | % Mortality at 72 Hrs. (Helicoverpa armigera [8]): 55.00% | % Corrected Mortality at 72 Hrs. (Helicoverpa armigera [8]): 55.00% | % Disease reduction over Control (Alternaria alternata [9]): 46.28% | Total No. of dead insect at 72 Hrs. (Spodoptera litura [10]): 6.00 | mortality at 1 mL or g/L (Thrips [11]; [19]): 65.7% | mortality at 1 mL or g/L (Thrips [11]; [20]): 70% | Total No. of dead insect at 48 Hrs. (Aphid [12]): 6.50 | % Corrected Mortality at 48 Hrs. (Aphid [12]): 60.00% | % Mortality at 48 Hrs. (Aphid [12]): 65.00% | Plant Height 5th Day (tomato seedlings): 6.84 cm | Stem Girth 5th Day (tomato seedlings): 1.74 mm | Plant Height 10th Day (tomato seedlings): 7.53 cm | Stem Girth 10th Day (tomato seedlings): 2.16 mm | Plant Height % Increase over pre on 10th Day (tomato seedlings): 29.60% | Stem Girth % Increase over pre on 10th Day (tomato seedlings): 58.82% | CCI 5th Day (tomato seedlings): 13.55 | CCI % Increase over pre on 10th Day (tomato seedlings): 26.08% | Root Length (cm) 10th Day (tomato seedlings): 4.07 cm | CCI 10th Day (tomato seedlings): 14.55 | Root Length % Increase over control (tomato seedlings): 22.24% | Phytotonic Effect [13]: Boost chlorophyll; also recorded: Trigger the nutrition | mortality at 1 mL or g/L (Spodoptera litura [14]; [21]): 57.9% | mortality at 1 mL or g/L (Spodoptera litura [14]; [22]): 60% | % Mortality at 48 Hrs. (Mite [15]): 22.50% | Total No. of dead insect at 48 Hrs. (Mite [15]): 22.50 | % Corrected Mortality at 48 Hrs. (Mite [15]): 18.42% | % Mortality at 48 Hrs. (Thrips [16]; 48 hrs after application): 67.50% | Total No. of dead insect at 48 Hrs. (Thrips [16]; 48 hrs after application): 67.50 | % Corrected Mortality at 48 Hrs. (Thrips [16]): 63.89% | Total No. of dead insect at 48 Hrs. (Thrips [17]): 7.00 | Total No. of dead insect at 48 Hrs. (Mealy Bug [18]): 5.50 | % Mortality at 48 Hrs. (Mealy Bug [18]): 55.00% | % Corrected Mortality at 48 Hrs. (Mealy Bug [18]): 52.63%

CC1=CCC2CC1C2(C)C (stereo not drawn) [Alpha-pinene]
Total No. of dead insect at 48 Hrs. (Mite [1]): 4.00 | % Corrected Mortality at 48 Hrs. (Mite [1]): 35.14% | % Mortality at 48 Hrs. (Mite [1]): 40.00% | Total No. of dead insect at 48 Hrs. (Aphid [2]): 60.00 | CCI 5th Day (chili seedlings): 11.40 | Plant Height (cm) 5th Day (chili seedlings): 6.35 cm | CCI % Increase over pre on 10th Day (chili seedlings): 36.59% | Plant Height % Increase over pre on 10th Day (chili seedlings): 51.74% | Root Lenght (cm) 10th Day (chili seedlings): 3.23 cm | Stem Girth % Increase over pre on 10th Day (chili seedlings): 41.80% | CCI 10th Day (chili seedlings): 12.58 | Plant Height (cm) 10th Day (chili seedlings): 6.54 cm | Root Lenght % Increase over control (chili seedlings): 17.88% | Mean colony Diameter (mm) (Alternaria alternata [3]): 71.50 mm | inhibition of growth at 1 mL or g/L (Alternaria alternata [3]): 18.8% | % Mortality at 72 Hrs. (Helicoverpa armigera [4]): 67.50% | % Corrected Mortality at 72 Hrs. (Helicoverpa armigera [4]): 67.50% | % Mortality at 48 Hrs. (Mealy Bug [5]): 60.00% | Total No. of dead insect at 48 Hrs. (Mealy Bug [5]): 60.00 | % Corrected Mortality at 48 Hrs. (Mealy Bug [5]): 55.56% | mortality at 1 mL or g/L (Aphid [6]; [19]): 52.9% | mortality at 1 mL or g/L (Aphid [6]; [20]): 60% | % Mortality at 72 Hrs. (Spodoptera litura [7]): 55.00% | % Corrected Mortality at 72 Hrs. (Spodoptera litura [7]): 52.63% | Total No. of dead insect at 72 Hrs. (Helicoverpa armigera [8]): 7.00 | % Mortality at 72 Hrs. (Helicoverpa armigera [8]): 70.00% | % Corrected Mortality at 72 Hrs. (Helicoverpa armigera [8]): 70.00% | % Disease reduction over Control (Alternaria alternata [9]): 42.15% | Total No. of dead insect at 72 Hrs. (Spodoptera litura [10]): 5.00 | mortality at 1 mL or g/L (Thrips [11]; [19]): 34.3% | mortality at 1 mL or g/L (Thrips [11]; [20]): 42.5% | Total No. of dead insect at 48 Hrs. (Aphid [12]): 5.75 | % Corrected Mortality at 48 Hrs. (Aphid [12]): 51.43% | % Mortality at 48 Hrs. (Aphid [12]): 57.50% | Plant Height 5th Day (tomato seedlings): 7.24 cm | Stem Girth 5th Day (tomato seedlings): 2.01 mm | Plant Height 10th Day (tomato seedlings): 7.74 cm | Stem Girth 10th Day (tomato seedlings): 2.22 mm | Plant Height % Increase over pre on 10th Day (tomato seedlings): 26.47% | Stem Girth % Increase over pre on 10th Day (tomato seedlings): 55.24% | CCI 5th Day (tomato seedlings): 13.65 | CCI % Increase over pre on 10th Day (tomato seedlings): 25.17% | Root Length (cm) 10th Day (tomato seedlings): 4.30 cm | CCI 10th Day (tomato seedlings): 14.32 | Root Length % Increase over control (tomato seedlings): 29.14% | Phytotonic Effect [13]: Trigger plant; also recorded: Boost chlorophyll | mortality at 1 mL or g/L (Spodoptera litura [14]; [21]): 47.4% | mortality at 1 mL or g/L (Spodoptera litura [14]; [22]): 50% | % Mortality at 48 Hrs. (Mite [15]): 32.50% | Total No. of dead insect at 48 Hrs. (Mite [15]): 32.50 | % Corrected Mortality at 48 Hrs. (Mite [15]): 28.95% | Total No. of dead insect at 48 Hrs. (Thrips [16]; 48 hrs after application): 42.50 | % Corrected Mortality at 48 Hrs. (Thrips [16]): 36.11% | Total No. of dead insect at 48 Hrs. (Thrips [17]): 4.25 | Total No. of dead insect at 48 Hrs. (Mealy Bug [18]): 5.25 | % Mortality at 48 Hrs. (Mealy Bug [18]): 52.50% | % Corrected Mortality at 48 Hrs. (Mealy Bug [18]): 50.00%
